Assay results taken from patent publication US10710964B2, “Organic electrolyte compounds for redox-flow batteries” (FUNDACIÓN CENTRO DE INVESTIGACIÓN COOPERATIVA DE ENERGÍAS …, priority 2015, dated 2020).
Values after ≈ are worked out from the molar mass of the structure shown.

Legend:
Type in all cases: physicochemical
[1] = Experimental density of the electrolyte solutions
From the text: Considering the two electron-proton process taking place in the present redox molecules, for a constant amount of grams of salt the optimization of the final concentration will be a balance between the molecular weight and the packing density of the organic compounds in the electrolyte solution. Highest concentration values and subsequently of chemical-electrical energy density stored in the present systems would be achieved as higher the packing density and lower the molecular weight of the molecule. The experimental density of the present solutions containing the redox neutral salts were measured. Densities of 1.04 g/ml, 1.00 g/ml and 0.95 g/ml were measured for solutions 1.23 M of Alizarine SH in H2O, 1.17 M of Alizarine SH in H2O and 1.46 M of Alizarine SH in 0.1 M HClO4 respectively.

[2] = Solubility studies (maximum concentration in aqueous media); conditions: for solubility: 0.1 M HClO4, room temperature; for solubility (concentration values): medium not given
Experimental: These were conducted in glass vials of 25 ml volume in which the organic electrolyte compound mass ranging between 15-30 mg approximately was dissolved in DI-H2O and also in the different supporting electrolytes. The procedure was performed in the following steps: after the addition of the solid, a small volume (usually starting from 25 μl) was added by using a micropipette, the suspension was vigorously shaken by hand until complete homogenization of the media in the whole vial (bottom part and walls) was observed. After that, the vials are left standing overnight. The day after, possible precipitation at the bottom of the vial was evaluated. If some solid appeared, the addition of more volume of solvent and/or supporting electrolyte was continued until the solid disappeared completely. […] The final concentration value was only calculated for those samples showing a stable solution after several weeks.

[3] = Cyclic voltammetry in cavity micro-electrode, three-electrode cell; conditions: for shift of redox potential on sulphonation, lower oxidation state / shift of redox potential on sulphonation, upper oxidation state: 0.1 M HClO4, sulphonated form in comparison to the parent molecule
Experimental: Attenuated Total Reflectance-Fourier Transform InfraRed (ATR-FTIR) spectra were recorded on Vertex 70 spectrometer (Bruker) in the range of wavelength of 4000-400 cm^−1. Differential Scanning Calorimetry measurements (DSC) were carried out on a TA Instruments Q2000 model in a sealed Al pan at a heating rate of 5° C. min^−1 in the temperature range between −80° C. and 100° C. The cyclic voltammetry measurements were performed in a cavity micro-electrode (CME) with an electrochemical interface area around a fraction of mm^2 and ohmic drop coming from the bulk of the electrolyte that can be neglected, allowing the use of high scan rates [C. Cachet-Vivier et al.; Electrochim. Acta 47, 181-189 (2001)]. The samples were studied electrochemically by using a three-electrode configuration cell in DI-H2O and the different supporting electrolytes with a platinum wire as counter electrode and Ag/AgCl or Hg/HgO as reference electrode depending of the acidic or basic pH of the media respectively.
The microcavity was filled with a homogenous mixture of active material (50 wt %) and carbon super C-65 (50 wt %) by applying pressure against an agate mortar. The cavity was cleaned by immersing the electrode in ethanol in an ultrasonic bath between experiments. For the CME, scan rates approximately an order of magnitude larger could be used without distortion usually seen in conventional cells [R. Lin et al., J. Electrochem. Soc. 1, A7-A12 (2009)]. All the experiments using CME were made three times for the same sample to check reliability. […] Cyclic voltammetry experiments were done from 10 mV/s to 1 V/s using a multichannel potentiostat/galvanostat (VMP3, Biologic). In order to make a direct comparison between the different samples, all current values were normalized to current values measured in the pure capacitive behavior region.

[4] = aqueous BR buffer at pH=7, room temperature
[5] = pure/neat DI-H2O, room temperature
[6] = vs. Ag/AgCl ref. electrode, BR buffer pH=7

In the case of O=C1c2ccccc2C(=O)c2c1cc(S(=O)(=O)O)c(O)c2O [Alizarin S. Red-H^+], the density of solution ([1]; 1.17 M solution in H2O) is reported as 1.00 g/mL, the density of solution ([1]; 1.23 M solution in H2O) is reported as 1.04 g/mL and the density of solution ([1]; 1.46 M solution in 0.1 M HClO4) is reported as 0.95 g/mL. For the same compound, the solubility [2] was ~1500 mM (≈ 480 mg/mL) and the “solubility (concentration values)” value [2] was 1600 mM (≈ 512 mg/mL).
For O=C1c2ccccc2C(=O)c2c1cc(S(=O)(=O)[O-])c(O)c2O.OC[P+](CO)(CO)CO [Alizarin S. Red-TKMP], the solubility [2] was ~1500 mM and the “solubility (concentration values)” value [2] was 1600 mM.
With O=C1/C(=C2\Nc3ccc(S(=O)(=O)O)cc3C2=O)Nc2ccc(S(=O)(=O)O)cc21 [Indigo Carmine-H^+] the “separation of the pair of reversible reduction peaks” value ([3]; BR buffer pH=3) was ~0.75 V, the “peak separation of the two redox peaks” value ([3]; BR buffer pH=7) was ~1 V and the “separation of both peaks” value ([3]; BR buffer pH=9, stabilized at cycle 10) was ~0.8 V. The “anodic shift in DI-H2O relative to BR buffer pH=7” value ([3]; DI-H2O, pH ~6) was ~170 mV, the “peak separation of the two redox peaks” value ([3]; neat DI-H2O) was ~1 V and the “solubility (highest concentration)” value [2, 4] was ~400 mM (≈ 169 mg/mL). For the same compound, the “solubility (highest concentration)” value [2, 5] was ~600 mM (≈ 253 mg/mL).
In the case of O=C1C(=C2Nc3ccc(S(=O)(=O)[O-])cc3C2=O)Nc2ccc(S(=O)(=O)[O-])cc21.[Na+].[Na+] [Indigo Carmine-Na^+, 3,3′-dioxo-2,2′-bis-indolyden-5,5′-disulfonic acid disodium salt], the “anodic shift of both pairs of peaks relative to Indigo” value ([3]; BR buffer pH=7) is reported as “approximately 80 mV”.
With O=C1/C(=C2\Nc3ccc(S(=O)(=O)[O-])cc3C2=O)Nc2ccc(S(=O)(=O)[O-])cc21.OCC[N+](CCO)(CCO)CCO.OCC[N+](CCO)(CCO)CCO [Indigo Carmine-TKEN] the “peak separation of the two redox peaks” value ([3]; BR buffer pH=7) was 1 V, the “solubility (highest concentration)” value [2, 4] was “up to 0.76 M” and the “solubility (concentration values)” value [2] was “up to 0.76 M”. The “solubility (highest concentration)” value [2, 5] was “up to 0.76 M”.
With O=C1C(=C2Nc3ccc(S(=O)(=O)[O-])cc3C2=O)Nc2ccc(S(=O)(=O)[O-])cc21.OC[P+](CO)(CO)CO.OC[P+](CO)(CO)CO [Indigo Carmine-TKMP] the “peak separation of the two redox peaks” value ([3]; BR buffer pH=7) was 1 V.
With O=C1/C(=C2\Nc3ccccc3C2=O)Nc2ccccc21 [Indigo, 2,2′-Bis(2,3-dihydro-3-oxoindolylidene), reference compound] the “reduction peak at negative potential” value [3, 6] was −0.44 V and the “reduction peak at positive potential” value [3, 6] was 0.31 V.
For O=C1c2ccccc2C(=O)c2c1ccc(O)c2O [alizarin, 1,2-dihydroxy-9,10-anthraquinone, reference compound], the “shift of redox potential on sulphonation, lower oxidation state” value [3] was ~50 mV and the “shift of redox potential on sulphonation, upper oxidation state” value [3] was ~35 mV.
For O=C1c2ccccc2C(=O)c2c(O)ccc(O)c21 [quinizarin, 1,4-dihydroxy-9,10-anthraquinone, reference compound], the “shift of redox potential on sulphonation, lower oxidation state” value [3] was ~100 mV and the “shift of redox potential on sulphonation, upper oxidation state” value [3] was ~15 mV.
